Experimental findings from PubChem BioAssay (NCI) are described below.

Molecules are shown by their SMILES.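 Method: 48-hour compound exposure of cells in 96-well plates, five concentrations, linear interpolation of endpoints. Here, GI50 denotes the concentration required for 50% inhibition of growth. The concentration for full growth arrest is given as TGI.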

Common to all, as to assay: DTP human tumour cell line panel, 48 h
Assay [1] concerns HCT-116 colon.
The subject of assay [2] is U251 CNS.
Assay [3] deals with A498 renal.
Assay [4] concerns HOP-62 NSCLC.
The subject of assay [5] is MOLT-4 leukemia.
The subject of assay [6] is SN12C renal.
Assay [7] deals with MALME-3M melanoma.
The subject of assay [8] is MDA-MB-435.
Assay [9] has as its system T-47D breast.
The test system of assay [10] is A549 NSCLC.

For orientation: GI50 means the concentration at which growth is held to half of that of the control. The term TGI denotes the concentration giving total growth inhibition. High values mean lower sensitivity of the cells, low ones greater sensitivity of the cells.

Consider `CCOC(=O)Cc1csc(NC(=O)C(OC(=O)c2ccc(N)cc2)c2ccccc2)n1` (stereo not given), for which the GI50 was 30.8 µM in [1]; 45.5 µM in [2]; 72.1 µM in assay [3]; 52 µM in assay [4]; 24.8 µM in assay [5]; 46.6 µM in [6]. Also, the GI50 in assay [7] is 44.2 µM; in assay [8], 31.1 µM; in [9] it was 55.2 µM; in assay [10], 51.5 µM. Further, the total growth inhibition concentration (TGI) in assay [1], in assay [2], in assay [3], in [4], in assay [5] and in [6] was > 100 µM throughout. Also, the total growth inhibition concentration (TGI) in assay [7], in assay [8], in [9] and in assay [10] was > 100 µM each time.

Take `CC(C)(C)NCCC(O)c1cc(C(F)(F)F)nc2c(C(F)(F)F)cccc12` (stereo not given): the total growth inhibition concentration (TGI) in assay [1] was 17.1 µM; in assay [2], 20.2 µM; in assay [3] it was 28.3 µM; in assay [4] it was 14.5 µM; in [5] it was 18.6 µM; in assay [6] it was 15.5 µM. For the same compound, the TGI came to 27.2 µM in [7], 27.6 µM in assay [8], 30.9 µM in [9] and 13.5 µM in assay [10].

Turning to `Cc1nc(C(N)=S)sc1C(=O)CC(=O)C(=O)Nc1cccc(Cl)c1C`, the TGI in assay [1], in assay [2], in assay [3], in assay [4], in assay [5] and in [6] was > 100 µM in each case. Also, the TGI in assay [7], in assay [8], in assay [9] and in assay [10] was > 100 µM each time.

Regarding `O=[N+]([O-])c1cccc(-c2ncc(-c3ccc(Cl)cc3Cl)[nH]2)c1`, the GI50 in [1] is 2.21 µM; in [2], 2.67 µM; in assay [3], 6.12 µM; in assay [4], 9.53 µM; in assay [5], 2.49 µM; in [6] it was 6.01 µM. Also, the GI50 was 3.69 µM in [7], 3.62 µM in assay [8], 6.88 µM in assay [9] and 22 µM in [10]. Further, the concentration for total growth inhibition (TGI) in assay [1] turned out to be 5.95 µM; in assay [2] it was 6.96 µM; in assay [3], 22.6 µM; in assay [4] it was 26.8 µM; in assay [5] it was 6.34 µM; in assay [6] it was 12.6 µM. In addition, the TGI in [7] is 8.84 µM; in assay [8], 12.2 µM; in assay [9] it was 28.5 µM; in assay [10] it was > 56.9 µM.

With `CN1CC(C(=O)NC2(C)OC3(O)C4CCCN4C(=O)C(Cc4ccccc4)N3C2=O)C=C2c3cccc4[nH]cc(c34)CC21` (stereo not given), the TGI in [1] is 48.7 µM; in assay [2], 38.2 µM; in assay [3], 30.9 µM; in assay [4], 63.2 µM; in [5], > 100 µM; in assay [6] it was 43.5 µM. In addition, the concentration for total growth inhibition (TGI) in assay [7] was 38.6 µM; in assay [8], 50.7 µM; in assay [9] it was > 100 µM; in [10], > 100 µM.

As for `CCCCCCN(CCCCCC)CC(O)c1cccc2ccc(Cl)cc12` (stereo not given), the GI50 was 3.09 µM in [1]; 10.5 µM in assay [2]; 10.4 µM in assay [3]; 3.71 µM in assay [4]; 7.81 µM in [5]; 10.7 µM in assay [6]. Moreover, the GI50 in [7] was 9.43 µM; in [8] it was 10.2 µM; in [9] it was 1.67 µM; in assay [10], 12.2 µM. For the same compound, the TGI is 14.2 µM in [1]; 23.5 µM in assay [2]; 22.3 µM in assay [3]; 14.5 µM in assay [4]; 26.1 µM in assay [5]; 23.6 µM in assay [6]. Moreover, the TGI was found to be 22.4 µM in assay [7], 29.4 µM in [8], 4.46 µM in assay [9] and 26.4 µM in assay [10].
